From PubChem BioAssay (NCI) come the findings set out here.

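Protocol summary: plate cells (96-well), add compound at 5 concentrations, incubate 48 h, interpolate endpoints linearly. TGI marks complete inhibition of growth.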 Bounds are passed on as bounds.

The test system of one assay is KM12 colon. Description: DTP human tumour cell line panel, 48 h.
In general, TGI refers to the concentration giving total growth inhibition. Low readings indicate greater sensitivity of the cells, high ones lower sensitivity of the cells. Consider `C=CCC(CCC(C)=O)(C(=O)OCC)C(=O)OCC`, for which the TGI was over 100 µM.

`CC(C)C(Cl)CCC(C)(Cl)C(=O)CBr` (stereo not drawn) displayed a TGI of 29.8 µM.

Compound `C1CSCCSCCCS[C@@H]2CCCCC2SC1` (stereo partly drawn) showed a concentration for total growth inhibition (TGI) of over 100 µM.

Take `COC(=O)[C@H](Cc1ccccc1)NC(=O)c1ccc(CNC(=O)/C=C/c2csc(-c3ccccc3)n2)cc1`: the TGI was over 100 µM.

In turn, `N#Cc1ccccc1OCCOc1ccccc1C#N` yielded a concentration for total growth inhibition (TGI) of over 100 µM.

In turn, `CCOC(=O)c1cn(CC)c(=O)n2c1nc1ccccc12` gave a TGI of over 100 µM.

In the case of `Cc1cccc2sc(NC(=O)NS(=O)(=O)n3cnc4ccccc43)nc12`, the TGI was over 100 µM.

In turn, `NNc1nnc(CCCCCCCCc2nnc(NN)n2N)n1N` had a TGI of over 100 µM.

Turning to `COc1ccc2nc3c(c(N)c2c1)C1CCC3C1(C)C` (stereo not drawn), the TGI was over 100 µM.

`CCN1/C(=C/C#C/C(C)=C\c2sc3ccc(Cl)cc3[n+]2CC)Sc2ccc(Cl)cc21` yielded a TGI of 19.4 µM.

With `CC(=O)c1ccc(N=NN2CCCC2)cc1`, the TGI is over 100 µM.

In the case of `CSC(=O)/C=C1\SS/C(=C\C(=O)SC)S1`, the total growth inhibition concentration (TGI) came to 13 µM.

`Cc1ccc(S[C@@](C=O)(NC(=O)OCc2ccccc2)C(F)(F)F)cc1`: the TGI turned out to be 52.8 µM.

`O=C1CC(O)c2cscc21` (stereo not drawn) showed a concentration for total growth inhibition (TGI) of over 100 µM.

As for `Cc1cc(O)c(/C=N/C(N)=S)c(=O)o1`, the TGI is over 100 µM.

On to `Cc1ccc(OCC2OC(n3cnc4c(Cl)nc(Nc5cc(Cl)cc(Cl)c5)nc43)CC2Oc2ccc(C)cc2)cc1` (stereo not drawn), for which the concentration for total growth inhibition (TGI) was over 100 µM.

In turn, `O=c1c(-c2ccccc2)nnc2n(Cc3ccccc3)c3ccccc3n12` showed a TGI of over 100 µM.

Turning to `C=CCON(C(=O)OC(C)(C)C)C(C)(C)C`, the TGI was over 100 µM.

The next assay deals with CAKI-1 renal. Description: DTP human tumour cell line panel, 48 h.
Turning to `C=CCC(CCC(C)=O)(C(=O)OCC)C(=O)OCC`, the concentration for total growth inhibition (TGI) was over 100 µM.

`CC(C)C(Cl)CCC(C)(Cl)C(=O)CBr` (stereo not drawn) yielded a TGI of 14.3 µM.

Consider `C1CSCCSCCCS[C@@H]2CCCCC2SC1` (stereo partly drawn), for which the total growth inhibition concentration (TGI) was over 100 µM.

Compound `COC(=O)[C@H](Cc1ccccc1)NC(=O)c1ccc(CNC(=O)/C=C/c2csc(-c3ccccc3)n2)cc1` gave a total growth inhibition concentration (TGI) of over 28.7 µM.

As to `N#Cc1ccccc1OCCOc1ccccc1C#N`, the concentration for total growth inhibition (TGI) is over 100 µM.

For the compound `CCOC(=O)c1cn(CC)c(=O)n2c1nc1ccccc12`, the total growth inhibition concentration (TGI) is over 100 µM.

The compound `Cc1cccc2sc(NC(=O)NS(=O)(=O)n3cnc4ccccc43)nc12` registered a concentration for total growth inhibition (TGI) of over 100 µM.

Compound `NNc1nnc(CCCCCCCCc2nnc(NN)n2N)n1N` returned a total growth inhibition concentration (TGI) of over 100 µM.

In turn, `COc1ccc2nc3c(c(N)c2c1)C1CCC3C1(C)C` (stereo not drawn) showed a TGI of over 100 µM.

The compound `CCN1/C(=C/C#C/C(C)=C\c2sc3ccc(Cl)cc3[n+]2CC)Sc2ccc(Cl)cc21` had a TGI of 7.13 µM.

As for `CC(=O)c1ccc(N=NN2CCCC2)cc1`, the total growth inhibition concentration (TGI) is over 100 µM.

For `CSC(=O)/C=C1\SS/C(=C\C(=O)SC)S1`, the TGI is 4.25 µM. This counts as single-digit micromolar.

On to `Cc1ccc(S[C@@](C=O)(NC(=O)OCc2ccccc2)C(F)(F)F)cc1`, for which the total growth inhibition concentration (TGI) worked out at 63.8 µM.

Turning to `O=C1CC(O)c2cscc21` (stereo not drawn), the total growth inhibition concentration (TGI) is over 100 µM.

`Cc1cc(O)c(/C=N/C(N)=S)c(=O)o1` had a concentration for total growth inhibition (TGI) of over 100 µM.

As to `Cc1ccc(OCC2OC(n3cnc4c(Cl)nc(Nc5cc(Cl)cc(Cl)c5)nc43)CC2Oc2ccc(C)cc2)cc1` (stereo not drawn), the concentration for total growth inhibition (TGI) was over 100 µM.

`O=c1c(-c2ccccc2)nnc2n(Cc3ccccc3)c3ccccc3n12`: the total growth inhibition concentration (TGI) was over 100 µM.

The compound `C=CCON(C(=O)OC(C)(C)C)C(C)(C)C` came in with a TGI of over 100 µM.

In another assay the test system is SW-620 colon. Description: DTP human tumour cell line panel, 48 h.
Take `C=CCC(CCC(C)=O)(C(=O)OCC)C(=O)OCC`: the TGI was over 100 µM.

As to `CC(C)C(Cl)CCC(C)(Cl)C(=O)CBr` (stereo not drawn), the TGI was found to be 5.65 µM.

Regarding `C1CSCCSCCCS[C@@H]2CCCCC2SC1` (stereo partly drawn), the TGI turned out to be 53.5 µM. This TGI lies about 9.5-fold higher than the previous one.

On to `COC(=O)[C@H](Cc1ccccc1)NC(=O)c1ccc(CNC(=O)/C=C/c2csc(-c3ccccc3)n2)cc1`, for which the TGI is over 100 µM.

Compound `N#Cc1ccccc1OCCOc1ccccc1C#N` registered a TGI of over 100 µM.

In turn, `CCOC(=O)c1cn(CC)c(=O)n2c1nc1ccccc12` yielded a total growth inhibition concentration (TGI) of over 100 µM.

`Cc1cccc2sc(NC(=O)NS(=O)(=O)n3cnc4ccccc43)nc12` gave a TGI of over 100 µM.

In turn, `NNc1nnc(CCCCCCCCc2nnc(NN)n2N)n1N` returned a concentration for total growth inhibition (TGI) of over 100 µM.

For the compound `COc1ccc2nc3c(c(N)c2c1)C1CCC3C1(C)C` (stereo not drawn), the TGI is over 100 µM.

In turn, `CC(=O)c1ccc(N=NN2CCCC2)cc1` returned a total growth inhibition concentration (TGI) of over 100 µM.

For the compound `CSC(=O)/C=C1\SS/C(=C\C(=O)SC)S1`, the total growth inhibition concentration (TGI) was found to be 4.15 µM.

With `Cc1ccc(S[C@@](C=O)(NC(=O)OCc2ccccc2)C(F)(F)F)cc1`, the concentration for total growth inhibition (TGI) is 66.9 µM.

The compound `O=C1CC(O)c2cscc21` (stereo not drawn) showed a TGI of over 100 µM.

`Cc1cc(O)c(/C=N/C(N)=S)c(=O)o1` returned a concentration for total growth inhibition (TGI) of over 100 µM.

On to `Cc1ccc(OCC2OC(n3cnc4c(Cl)nc(Nc5cc(Cl)cc(Cl)c5)nc43)CC2Oc2ccc(C)cc2)cc1` (stereo not drawn), for which the TGI was over 100 µM.

With `O=c1c(-c2ccccc2)nnc2n(Cc3ccccc3)c3ccccc3n12`, the TGI was over 100 µM.

`C=CCON(C(=O)OC(C)(C)C)C(C)(C)C` came in with a total growth inhibition concentration (TGI) of over 100 µM.

A further assay concerns SF-539 CNS. In words: DTP human tumour cell line panel, 48 h.
`C=CCC(CCC(C)=O)(C(=O)OCC)C(=O)OCC` showed a TGI of over 100 µM.

`CC(C)C(Cl)CCC(C)(Cl)C(=O)CBr` (stereo not drawn): the concentration for total growth inhibition (TGI) stood at 32.1 µM. This lies in the double-digit micromolar range.

The compound `C1CSCCSCCCS[C@@H]2CCCCC2SC1` (stereo partly drawn) showed a TGI of over 100 µM.

The compound `COC(=O)[C@H](Cc1ccccc1)NC(=O)c1ccc(CNC(=O)/C=C/c2csc(-c3ccccc3)n2)cc1` had a TGI of 13 µM.

As to `N#Cc1ccccc1OCCOc1ccccc1C#N`, the TGI was over 100 µM.

The compound `CCOC(=O)c1cn(CC)c(=O)n2c1nc1ccccc12` came in with a total growth inhibition concentration (TGI) of over 100 µM.

Compound `Cc1cccc2sc(NC(=O)NS(=O)(=O)n3cnc4ccccc43)nc12` had a TGI of 78 µM.

The compound `NNc1nnc(CCCCCCCCc2nnc(NN)n2N)n1N` registered a concentration for total growth inhibition (TGI) of over 100 µM.

The compound `COc1ccc2nc3c(c(N)c2c1)C1CCC3C1(C)C` (stereo not drawn) came in with a TGI of over 100 µM.

Turning to `CCN1/C(=C/C#C/C(C)=C\c2sc3ccc(Cl)cc3[n+]2CC)Sc2ccc(Cl)cc21`, the TGI was found to be 16.1 µM.

As for `CC(=O)c1ccc(N=NN2CCCC2)cc1`, the TGI was over 100 µM.

In turn, `CSC(=O)/C=C1\SS/C(=C\C(=O)SC)S1` came in with a TGI of 6.93 µM.

`Cc1ccc(S[C@@](C=O)(NC(=O)OCc2ccccc2)C(F)(F)F)cc1` came in with a TGI of 70.9 µM.

In the case of `O=C1CC(O)c2cscc21` (stereo not drawn), the TGI is over 100 µM.

As to `Cc1cc(O)c(/C=N/C(N)=S)c(=O)o1`, the concentration for total growth inhibition (TGI) was over 100 µM.
